Among the test systems are ACHN; BT-549; COLO 205; HCC 2998; HOP-62; HT-29; M14; MCF7; NCI-H522; OVCAR-3; OVCAR-4; OVCAR-8; SF-268; SF-539; SK-MEL-28; SNB-19; UACC-257; UACC-62; Malme-3M; RXF 393.
Holding throughout (test): NCI tumour cell line growth inhibition, 48 h

Structures can show the parent of a compound that is named as a salt.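 Exposure lasted 48 hours, with cells grown in 96-well plates and compounds tested at five concentrations. At the GI50, growth is halved.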 Active and inactive are the calls of the source. No stated cut-off is given here; in the data, active = GI50 up to about 1.1 µM and inactive = higher.

Data on ten compounds can be found in ChEMBL document CHEMBL1201862, “PubChem BioAssay data set” (2004).

With `COc1cccc(CC(=O)N2CCN(CCCc3ccccc3)CC2)c1`, the GI50 with ACHN is 83.8 µM (inactive); with BT-549, 33.8 µM (inactive); in the assay with COLO 205, 76.7 µM (inactive); in the assay with HCC 2998, 98.4 µM (inactive); with HOP-62, > 100 µM (inactive); in the assay on HT-29, 31.4 µM (inactive). For the same compound, the GI50 with M14 was 63.8 µM (inactive); with MCF7, 60.3 µM (inactive); in the assay with NCI-H522, 57.9 µM (inactive); in the assay on OVCAR-3 it was 60.1 µM (inactive); with OVCAR-4, 34.4 µM (inactive); with OVCAR-8, 53 µM (inactive). Moreover, the GI50 in the assay on SF-268 was > 100 µM (inactive); with SF-539, > 100 µM (inactive); with SK-MEL-28 it was > 100 µM (inactive); with SNB-19, > 100 µM (inactive); in the assay on UACC-257, 37.3 µM (inactive); in the assay on UACC-62 it was > 100 µM (inactive).
As to `O=C(O)/C(O)=C\C(=O)c1ccc(Br)cc1`, the GI50 in the assay on ACHN, with BT-549, with COLO 205, with HCC 2998, in the assay on HOP-62 and in the assay on HT-29 was > 100 µM (inactive) throughout. Also, the GI50 with M14, in the assay with MCF7, in the assay on Malme-3M, in the assay with NCI-H522, with OVCAR-3 and with OVCAR-4 was > 100 µM (inactive) each time. Further, the GI50 in the assay with OVCAR-8, in the assay on RXF 393, in the assay with SF-268, with SK-MEL-28, in the assay on SNB-19 and in the assay on UACC-257 was > 100 µM (inactive) throughout. The GI50 in the assay on UACC-62 is > 100 µM (inactive).
On to `CCOC(=O)C1=C(C)NC(C)=C(C(=O)OCC)C1c1ccc(C)cc1`, for which the GI50 in the assay on ACHN was 43 µM (inactive); in the assay with BT-549, 52.8 µM (inactive); with COLO 205, > 10 µM (inactive); in the assay with HCC 2998, 73.6 µM (inactive); in the assay with HOP-62 it was 46.5 µM (inactive); in the assay with HT-29 it was 27.8 µM (inactive). The GI50 was 37.6 µM (inactive) in the assay with M14; 11.2 µM (inactive) in the assay with MCF7; 32.4 µM (inactive) in the assay with NCI-H522; 21.1 µM (inactive) in the assay with OVCAR-3; 54.3 µM (inactive) with OVCAR-4; 28.1 µM (inactive) in the assay with OVCAR-8. Also, the GI50 was 29.1 µM (inactive) with RXF 393; 51.1 µM (inactive) in the assay on SF-268; 37.1 µM (inactive) in the assay with SF-539; > 100 µM (inactive) in the assay with SK-MEL-28; 63.1 µM (inactive) in the assay on SNB-19; 44.9 µM (inactive) in the assay on UACC-257. Moreover, in the assay on UACC-62, the GI50 is 39.4 µM (inactive).
In the case of `Cc1ccc(S(=O)(=O)N2CCN(CCO)CCN(S(=O)(=O)c3ccc(C)cc3)CCN(CCO)CC2)cc1`, the GI50 with ACHN was 31 µM (inactive); in the assay with BT-549 it was 60.8 µM (inactive); in the assay with COLO 205, 15.3 µM (inactive); in the assay on HCC 2998, 15.4 µM (inactive); with HOP-62 it was 27.5 µM (inactive); with HT-29, 12.2 µM (inactive). Moreover, the GI50 with M14 was 17.1 µM (inactive); in the assay with MCF7, 13.4 µM (inactive); in the assay with NCI-H522, 18.7 µM (inactive); with OVCAR-3, 18.7 µM (inactive); with OVCAR-4, 15 µM (inactive); in the assay on OVCAR-8, 28 µM (inactive). Moreover, the GI50 in the assay with RXF 393 is 13.9 µM (inactive); with SF-268, 26.1 µM (inactive); with SF-539, 15.8 µM (inactive); with SK-MEL-28, 16.3 µM (inactive); in the assay on SNB-19 it was 37.8 µM (inactive); in the assay on UACC-257, 10.3 µM (inactive). In addition, the GI50 with UACC-62 was 18.2 µM (inactive).
`Cn1c(=O)n2n(c1=O)[C@@H](c1ccccc1)[C@H]2c1ccccc1`: the GI50 in the assay with ACHN, in the assay with BT-549, in the assay on COLO 205, in the assay with HCC 2998, in the assay with HOP-62 and in the assay on HT-29 was > 100 µM (inactive) each time. The GI50 in the assay on M14, in the assay on MCF7, in the assay on Malme-3M, in the assay on OVCAR-3, with OVCAR-4 and with OVCAR-8 was > 100 µM (inactive) each time. For the same compound, the GI50 in the assay on RXF 393, in the assay on SF-539, with SK-MEL-28, in the assay with SNB-19, with UACC-257 and in the assay on UACC-62 was > 100 µM (inactive) each time.
Turning to `N#CCC(=O)N/N=C\C(O)C(O)C(O)C(O)CO` (centres undefined), the GI50 in the assay on ACHN, in the assay on BT-549, with HCC 2998, with HOP-62, in the assay on HT-29 and in the assay with M14 was > 100 µM (inactive) throughout. Also, the GI50 with MCF7, with Malme-3M, in the assay on NCI-H522, in the assay with OVCAR-3, in the assay on OVCAR-8 and in the assay with RXF 393 was > 100 µM (inactive) in each case. Further, the GI50 in the assay with SF-268, in the assay with SF-539, with SK-MEL-28, with SNB-19, with UACC-257 and in the assay with UACC-62 was > 100 µM (inactive) throughout.
`CC(C)(C)OC(=O)N1CCCC1=O`: the GI50 in the assay on ACHN, in the assay on BT-549, in the assay with HCC 2998, with HOP-62, with HT-29 and with M14 was > 10 µM (inactive) each time. The GI50 with MCF7, in the assay on Malme-3M, with OVCAR-3, in the assay on OVCAR-8, in the assay on RXF 393 and with SF-268 was > 10 µM (inactive) in each case. The GI50 with SF-539, with SK-MEL-28, with SNB-19, with UACC-257 and in the assay with UACC-62 was > 10 µM (inactive) throughout.
`COc1ccc(C2=Cc3nc2c(-c2ccccc2)c2ccc([nH]2)c(-c2ccccc2)c2nc(c(-c4ccccc4)c4ccc([nH]4)c3-c3ccccc3)C=C2)cc1`: the GI50 in the assay with ACHN, in the assay on BT-549, in the assay with COLO 205, with HCC 2998, with HOP-62 and with HT-29 was > 100 µM (inactive) in each case. The GI50 in the assay with M14, with MCF7, with Malme-3M, in the assay on OVCAR-3, in the assay on OVCAR-4 and in the assay on OVCAR-8 was > 100 µM (inactive) throughout. For the same compound, the GI50 was > 100 µM (inactive) with RXF 393; 51.4 µM (inactive) in the assay on SF-268; > 100 µM (inactive) in the assay on SF-539; > 100 µM (inactive) in the assay with SK-MEL-28; 48.2 µM (inactive) in the assay on SNB-19; > 100 µM (inactive) in the assay with UACC-62.
Consider `COC(=O)[C@@H]1C[C@@H](O)CN1C(=O)c1ccc([N+](=O)[O-])cc1[N+](=O)[O-]`, for which the GI50 in the assay on ACHN is > 100 µM (inactive); in the assay on BT-549, > 100 µM (inactive); in the assay on COLO 205, 50 µM (inactive); in the assay on HCC 2998, > 100 µM (inactive); in the assay on HOP-62 it was > 100 µM (inactive); in the assay on HT-29, 51.2 µM (inactive). Also, the GI50 in the assay with M14 is > 100 µM (inactive); in the assay on MCF7 it was > 100 µM (inactive); with NCI-H522 it was > 100 µM (inactive); with OVCAR-3, 39.2 µM (inactive); in the assay on OVCAR-4, > 100 µM (inactive); in the assay on OVCAR-8, > 100 µM (inactive). In addition, the GI50 in the assay on RXF 393, in the assay with SF-268, with SF-539, in the assay with SK-MEL-28, in the assay on SNB-19 and in the assay with UACC-257 was > 100 µM (inactive) in each case. In the assay on UACC-62, the GI50 is > 100 µM (inactive).
In the case of `CC[C@]12CN3CCc4c([nH]c5ccccc45)[C@@](C(=O)OC)(c4cc5c(cc4OC)N(C)[C@H]4[C@@](O)(C(=O)OC)[C@H](OC(C)=O)[C@]6(CC)C=CCN7CC[C@]54[C@@H]76)CC(C3)[C@H]1O2` (some centres undefined) [VINLEUROSINE SULFATE], the GI50 is 1.33 µM (inactive) with ACHN; 10.2 µM (inactive) with BT-549; < 0.01 µM (active) in the assay on COLO 205; < 0.01 µM (active) in the assay with HCC 2998; 0.1 µM (active) with HOP-62; < 0.0172 µM (active) in the assay with HT-29. The GI50 with M14 is 0.171 µM (active); in the assay with MCF7, < 0.014 µM (active); with NCI-H522 it was < 0.01 µM (active); with OVCAR-3 it was 0.0104 µM (active); in the assay with OVCAR-4 it was < 0.01 µM (active); in the assay on OVCAR-8, 0.449 µM (active). In addition, the GI50 with RXF 393 was 0.158 µM (active); with SF-268, 1.02 µM (active); with SF-539, 0.039 µM (active); in the assay with SK-MEL-28 it was 0.254 µM (active); in the assay on SNB-19 it was 0.0553 µM (active); in the assay with UACC-257, 3.24 µM (inactive). Moreover, the GI50 in the assay on UACC-62 was 0.0368 µM (active).
